Assay results as given in ChEMBL document CHEMBL3259816, “Interactions of cyclic and non-cyclic naphthalene diimide derivatives with different nucleic acids” (Bioorg Med Chem, 2014).
The source made the active and inactive calls. No cut-off for these calls is given here.

What was measured:
[1] = Binding affinity to double strand 5'-GGGAGGTTTCGC-3' and 5'-GCGAAACCTCCC-3' DNA (unknown origin) assessed as change in melting temperature by spectrophotometry in presence of K+
[2] = Binding affinity to double strand 5'-GGGAGGTTTCGC-3' and 5'-GCGAAACCTCCC-3' DNA (unknown origin) assessed as change in melting temperature by spectrophotometry in presence of Na+
[3] = Stabilization of 5'-AGGG(TTAGGG)3-3' DNA (unknown origin) assessed as G-quadruplex formation at 1:0.3 to 1:4.5 DNA/ligand molar ratio by circular dichroism analysis in presence of KCl
[4] = Inhibition of telomerase (unknown origin) incubated for 60 mins at 30 degC followed by 5 mins at 95 degC by TRAP assay; design: species or system Homo sapiens
[5] = Binding affinity to poly (dA-dT)2 dsDNA (unknown origin) assessed as change in melting temperature at 1:0.15 DNA/ligand ratio by absorbance melting method in presence of Na+
[6] = Binding affinity to 5'-AGGG(TTAGGG)3-3' DNA (unknown origin) assessed as change in melting temperature by spectropolarimetry in presence of K+
[7] = system: Nucleic Acid; assay: Binding affinity to poly (dG-dC)2 dsDNA (unknown origin) assessed as DNA intercalation at 5 to 50 uM by circular dichroism analysis in presence of NaCl; type: nucleic-acid assay
[8] = system: Nucleic Acid; assay: Binding affinity to double strand 5'-GGGAGGTTTCGC-3' and 5'-GCGAAACCTCCC-3' DNA (unknown origin) assessed as DNA intercalation at 0.75 to 11.25 uM by circular dichroism analysis in presence of K+; type: nucleic-acid assay
[9] = Binding affinity to 5'-AGGG(TTAGGG)3-3' DNA (unknown origin) by Benesi-Hildebrand method in presence of Na+
[10] = Binding affinity to 5'-AGGG(TTAGGG)3-3' DNA (unknown origin) assessed as assessed as G-quadruplex formation at 2:1 DNA/ligand molar ratio by circular dichroism analysis in presence of KCl
[11] = system: Nucleic Acid; assay: Binding affinity to double strand 5'-GGGAGGTTTCGC-3' and 5'-GCGAAACCTCCC-3' DNA (unknown origin) assessed as DNA intercalation at 0.5 to 6.75 uM by circular dichroism analysis in presence of K+; type: nucleic-acid assay
[12] = system: Escherichia coli; assay: Binding affinity to Escherichia coli pUC19 DNA assessed as formation of supercoiled DNA at 1 to 5 uM after 1 hr by agarose gel electrophoresis
[13] = system: Calf thymus DNA; assay: Binding affinity to calf thymus DNA assessed as DNA intercalation at 5 to 50 uM by circular dichroism analysis in presence of NaCl; type: nucleic-acid assay; conditions: Bos taurus
[14] = system: Nucleic Acid; assay: Binding affinity to poly (dA-dT)2 dsDNA (unknown origin) assessed as DNA intercalation at 5 to 50 uM by circular dichroism analysis in presence of NaCl; type: nucleic-acid assay
[15] = Binding affinity to poly (dA-dT)2 dsDNA (unknown origin) assessed as change in melting temperature at 1:0.05 DNA/ligand ratio by absorbance melting method in presence of Na+
[16] = Stabilization of 5'-AGGG(TTAGGG)3-3' DNA (unknown origin) assessed as G-quadruplex formation at 1:0.3 to 1:4.5 DNA/ligand molar ratio by circular dichroism analysis in presence of NaCl
[17] = Binding affinity to poly (dA-dT)2 dsDNA (unknown origin) assessed as change in melting temperature at 1:0.1 DNA/ligand ratio by absorbance melting method in presence of Na+
[18] = system: Nucleic Acid; assay: Binding affinity to double strand 5'-GGGAGGTTTCGC-3' and 5'-GCGAAACCTCCC-3' DNA (unknown origin) assessed as DNA intercalation at 0.5 to 6.75 uM by circular dichroism analysis in presence of Na+; type: nucleic-acid assay
[19] = system: Escherichia coli; assay: Binding affinity to Escherichia coli pUC19 DNA assessed as formation of supercoiled DNA at 0.4 to 2.4 uM after 1 hr by agarose gel electrophoresis
[20] = Binding affinity to double strand 5'-GGGAGGTTTCGC-3' and 5'-GCGAAACCTCCC-3' DNA (unknown origin) by Benesi-Hildebrand method in presence of Na+
[21] = Binding affinity to 5'-AGGG(TTAGGG)3-3' DNA (unknown origin) assessed as change in melting temperature by spectropolarimetry in presence of Na+
[22] = Binding affinity to 5'-AGGG(TTAGGG)3-3' DNA (unknown origin) by Benesi-Hildebrand method in presence of K+
[23] = Binding affinity to double strand 5'-GGGAGGTTTCGC-3' and 5'-GCGAAACCTCCC-3' DNA (unknown origin) by Benesi-Hildebrand method in presence of K+
[24] = system: Nucleic Acid; assay: Binding affinity to double strand 5'-GGGAGGTTTCGC-3' and 5'-GCGAAACCTCCC-3' DNA (unknown origin) assessed as DNA intercalation at 0.75 to 11.25 uM by circular dichroism analysis in presence of Na+; type: nucleic-acid assay
[25] = Binding affinity to poly (dA-dT)2 dsDNA (unknown origin) assessed as change in melting temperature at 1:0.3 DNA/ligand ratio by absorbance melting method in presence of Na+

SMILES | ΔTm [1] [°C] | ΔTm [2] [°C] | Activity [3] | EC50 [4] [µM] | ΔTm [5] [°C] | ΔTm [6] [°C] | Activity [7] | Activity [8] | Kb [9] [×10⁶ /M] | Activity [10] | Activity [11] | Activity [12] | Activity [13] | Activity [14] | ΔTm [15] [°C] | Activity [16] | ΔTm [17] [°C] | Activity [18] | Activity [19] | Kb [20] [×10⁶ /M] | also measured
O=C1NCCCN2CCN(CCCN3C(=O)c4ccc5c6c(ccc(c46)C3=O)C(=O)N(CCCN3CCN(CCCNC(=O)c4ccc1cc4)CC3)C5=O)CC2 | 10 | 10 | Active | 0.35 | 18 | 9 | Active | Active | 0.9 | Active | Active | Active | Active | Active | 9 | Active | 14 | Active | Active | 2.5 | ΔTm [21]: 3 °C; Kb [22]: 3.7 ×10⁶ /M; Kb [23]: 2.6 ×10⁶ /M; Activity [24]: Active; ΔTm [25]: 24 °C
CN(C)CCCN1C(=O)c2ccc3c4c(ccc(c24)C1=O)C(=O)N(CCCN(C)C)C3=O | 5 | 5 | Active | 6 | 7 | 6 | Active | Active | 0.7 | Active | Active | Active | Active | Active | 2 | Active | 4 | Active | Active | 1 | ΔTm [21]: 1 °C; Kb [22]: 1.4 ×10⁶ /M; Kb [23]: 1 ×10⁶ /M; Activity [24]: Active; ΔTm [25]: 13 °C
